Data from patent US12378247B2, “Mesylate salt of para-topolin, compositions containing said salt and use thereof” (USTAV EXPERIMENTALNI BOTANIKY AV CR, V. V. I., priority 2020, dated 2025).

Assays:
[1] = tested on: Human diploid fibroblast BJ; assay: MTT cytotoxicity assay in normal fibroblasts; assay type: cell-based; conditions: 72 hours
Method: MTT (metabolic tetrazolium toxicity) assay is a standard colorimetric assay for evaluation of cytotoxicity. Mitochondrial dehydrogenase activity converts yellow MTT into violet formazan which is measured by means of spectrometry. Human diploid fibroblast BJ (passage 18-22) were seeded into 96-well plate (5.000 cells per well). After 6 hours cultivation medium (DMEM with 5 g/l glucose, 2 mM glutamine, 100 U/ml penicillin, […] streptomycin, 10% fetal calf serum and sodium bicarbonate) was replaced with the cultivation medium containing test compounds in concentration range of 0-200 μM. Highest concentration was adjusted if the solubility of the compound was limiting. Every concentration was tested in pentaplicate. MTT was added to the cells after 72 hours incubation (final concentration 0.5 mg/ml) and incubation continued for another 3 hours. MTT was solubilised by DMSO and absorbance at 570 nm was measured. Growth inhibition (GI) was estimated using the following equitation: GI=(mean A drug exposed wells-mean Ablank/mean Acontrol wells−mean Ablank)×100%. The GI20 value, the drug concentration causing 20% decrease in mitochondrial dehydrogenase activity, was calculated from the obtained dose response curves.

Rat glioma C6 cells = assay: Anti-inflammatory activity: isoproterenol-induced intracellular cAMP synthesis; assay type: cell-based; conditions: isoproterenol-induced cAMP, C6 cells
Method: The anti-inflammatory activity of para-topolin and para-topolin mesylate was determined; cytokinin kinetin was also evaluated as a control. Rat glioma C6 cells (ATCC No. CCL107) were cultured in a monolayer in chemically defined beser medium containing Ham's F10/minimal essential medium (1:1 v/v), 2 mM L-glutamine, 1% (v/v). Minimum vitamins of essential medium (100×), 1% (v/v) minimum essential amino acids (100×), 100 U/ml penicillin, […] streptomycin and 30 nM sodium selenite. Incubation was performed at 37° C. in a 100% humidified atmosphere. The assays were performed in logarithmic growth phase at a density of 2.5×10^5 cells/cm^2. Intracellular cAMP synthesis was induced by the addition of 5 mM (−)-isoproterenol; at the same time, various concentrations of tested compounds were added at the same time as (−)-isoproterenol. After 30 minutes of incubation, the cellular amount of CAMP was determined by ELISA (cAMP-enzyme immunoassay from Amersham). IC50 values were determined from the […] dose-response curve.

[2] = ORAC (Oxygen Radical Absorbance Capacity), ability to scavenge free radicals; assay type: biochemical; conditions: n = 3
Method: The ability of the substance to scavenge free radicals in vitro was determined using the ORAC (Oxygen Radical Absorbance Capacity) method. Briefly, 100 μl of fluorescein ([…]) and 25 μl of tested substance solution were pipetted into each well of a 96-well microtiter plate preheated to 37° C. The reaction itself was started by the addition of 25 μL 250 mM AAPH. After shaking for 5 s, the fluorescence (Ex. 485 nm, Em. 510 nm) was read every 3 min for 90 min using an Infinite 200 instrument (TECAN, Switzerland). The area under the curve was used to express the antioxidant capacity relative to trolox, which is used as a standard. […] Such activities are likely to be closely related to the electron-rich C6-hydroxybenzylamino substituent system.

SMILES | Cytotoxicity for Human Diploid Fibroblasts GI20 [1] [µM] | Anti-inflammatory activity (in words) (Rat glioma C6 cells) | ORAC Average(TE), Trolox equivalents on equimolar basis [2] [TE]
c1coc(CNc2ncnc3nc[nH]c23)c1 [6-furfurylaminopurine (kinetin), 6-furfurylaminopurine] | >167 | inactive | 
Oc1cccc(CNc2ncnc3nc[nH]c23)c1 [6-(3-hydroxybenzylamino)purine (mT), 6-(3-hydroxybenzylamino)purine] |  |  | 4.509
Oc1ccccc1CNc1ncnc2nc[nH]c12 [6-(2-hydroxybenzylamino)purine (oT), 6-(2-hydroxybenzylamino)purine] |  |  | 7.026
OC[C@H]1O[C@@H](n2cnc3c(NCc4ccco4)ncnc32)[C@H](O)[C@@H]1O [6-furfurylaminopurine riboside] | 2.1 |  | 
OC[C@H]1O[C@@H](n2cnc3c(NCc4ccccc4)ncnc32)[C@H](O)[C@@H]1O [6-(benzylamino)purine riboside] | 1.7 |  | 
